Measurements published in ChEMBL document CHEMBL1138574, “Regioselective synthesis and stereochemical structure of anti-tumor active dispiro[3H-indole-3,2'-pyrrolidine-3',3''-piperidine]-2(1H),4''-diones” (2009).

Tests used:
Assay type in all cases: functional
Conditions in all cases: route intraperitoneal
Rattus norvegicus [1] = test: Antiinflammatory activity in Wister albino rat assessed as inhibition of carrageenan-induced paw oedema at 50 mg/kg, ip administered 1 hr before carrageenan challenge measured after 1 hr of induction of inflammation relative to control
Rattus norvegicus [2] = test: Antiinflammatory activity in Wister albino rat assessed as inhibition of carrageenan-induced paw oedema at 50 mg/kg, ip administered 1 hr before carrageenan challenge measured after 2 hrs of induction of inflammation relative to control
Rattus norvegicus [3] = test: Antiinflammatory activity in Wister albino rat assessed as inhibition of carrageenan-induced paw oedema at 50 mg/kg, ip administered 1 hr before carrageenan challenge measured after 3 hrs of induction of inflammation relative to control
Rattus norvegicus [4] = test: Antiinflammatory activity in Wister albino rat assessed as inhibition of carrageenan-induced paw oedema at 50 mg/kg, ip administered 1 hr before carrageenan challenge measured after 4 hrs of induction of inflammation relative to control
Rattus norvegicus [5] = test: Antiinflammatory activity in Wister albino rat assessed as inhibition of carrageenan-induced paw oedema at 50 mg/kg, ip administered 1 hr before carrageenan challenge measured after 24 hrs of induction of inflammation relative to control
Rattus norvegicus [6] = test: Antiinflammatory activity in Wister albino rat assessed as inhibition of carrageenan-induced paw oedema at 50 mg/kg, ip administered 1 hr before carrageenan challenge measured after 4 hrs of induction of inflammation relative to indomethacin
Rattus norvegicus [7] = test: Antiinflammatory activity in Wister albino rat assessed as inhibition of carrageenan-induced paw oedema at 10 mg/kg, ip administered 1 hr before carrageenan challenge measured after 1 hr of induction of inflammation relative to control
Rattus norvegicus [8] = test: Antiinflammatory activity in Wister albino rat assessed as inhibition of carrageenan-induced paw oedema at 10 mg/kg, ip administered 1 hr before carrageenan challenge measured after 2 hrs of induction of inflammation relative to control
Rattus norvegicus [9] = test: Antiinflammatory activity in Wister albino rat assessed as inhibition of carrageenan-induced paw oedema at 10 mg/kg, ip administered 1 hr before carrageenan challenge measured after 3 hrs of induction of inflammation relative to control
Rattus norvegicus [10] = test: Antiinflammatory activity in Wister albino rat assessed as inhibition of carrageenan-induced paw oedema at 10 mg/kg, ip administered 1 hr before carrageenan challenge measured after 4 hrs of induction of inflammation relative to control
Rattus norvegicus [11] = test: Antiinflammatory activity in Wister albino rat assessed as inhibition of carrageenan-induced paw oedema at 10 mg/kg, ip administered 1 hr before carrageenan challenge measured after 24 hrs of induction of inflammation relative to control

| SMILES | inhibition in vivo at 50 mg/kg (Rattus norvegicus [1]) [%] | inhibition in vivo at 50 mg/kg (Rattus norvegicus [2]) [%] | inhibition in vivo at 50 mg/kg (Rattus norvegicus [3]) [%] | inhibition in vivo at 50 mg/kg (Rattus norvegicus [4]) [%] | inhibition in vivo at 50 mg/kg (Rattus norvegicus [5]) [%] | inhibition in vivo at 50 mg/kg (Rattus norvegicus [6]) [%] | inhibition in vivo at 10 mg/kg (Rattus norvegicus [7]) [%] | inhibition in vivo at 10 mg/kg (Rattus norvegicus [8]) [%] | inhibition in vivo at 10 mg/kg (Rattus norvegicus [9]) [%] | inhibition in vivo at 10 mg/kg (Rattus norvegicus [10]) [%] | inhibition in vivo at 10 mg/kg (Rattus norvegicus [11]) [%] |
| --- | --- | --- | --- | --- | --- | --- | --- | --- | --- | --- | --- |
| CN1C/C(=C\c2ccc(-c3cccs3)cc2)C(=O)[C@]2(C1)[C@@H](c1ccc(-c3cccs3)cc1)CN(C)[C@@]21C(=O)Nc2ccccc21 | 68 | 70.7 | 74.8 | 71.4 | 79.8 | 126 |  |  |  |  |  |
| CN1C/C(=C\c2ccc(Br)cc2)C(=O)[C@]2(C1)[C@@H](c1ccc(Br)cc1)CN(C)[C@@]21C(=O)N(C)c2ccccc21 | 53.5 | 49.1 | 47.6 | 46.8 | 83.5 | 82.8 |  |  |  |  |  |
| CN1C/C(=C\c2ccc(F)cc2)C(=O)[C@]2(C1)[C@@H](c1ccc(F)cc1)CN(C)[C@@]21C(=O)N(C)c2ccccc21 | 75.8 | 62 | 55.8 | 47.2 | 27.2 | 83.5 |  |  |  |  |  |
| Cc1ccc(/C=C2\CN(C)C[C@@]3(C2=O)[C@@H](c2ccc(C)cc2)CN(C)[C@@]32C(=O)N(C)c3ccccc32)cc1 | 53.5 | 62 | 65 | 68.8 | 57 | 122 |  |  |  |  |  |
| CN1C/C(=C\c2ccc(F)cc2)C(=O)[C@]2(C1)[C@@H](c1ccc(F)cc1)CN(C)[C@@]21C(=O)Nc2ccccc21 | 80.1 | 78.4 | 70.9 | 61.5 | 57 | 109 |  |  |  |  |  |
| CN1C/C(=C\c2ccccc2)C(=O)[C@]2(C1)[C@@H](c1ccccc1)CN(C)[C@@]21C(=O)N(C)c2ccccc21 | 68 | 70.7 | 75.6 | 68.8 | 26.5 | 122 |  |  |  |  |  |
| Cc1ccc(/C=C2\CN(C)C[C@@]3(C2=O)[C@@H](c2ccc(C)cc2)CN(C)[C@@]32C(=O)Nc3ccccc32)cc1 | 69.2 | 52.1 | 50.9 | 50.7 | 22.1 | 89.7 |  |  |  |  |  |
| CN1C/C(=C\c2ccccc2)C(=O)[C@]2(C1)[C@@H](c1ccccc1)CN(C)[C@@]21C(=O)Nc2ccccc21 | 77 | 73.3 | 71.4 | 70.9 | 65.1 | 126 |  |  |  |  |  |
| CN1C/C(=C\c2ccc(Br)cc2)C(=O)[C@]2(C1)[C@@H](c1ccc(Br)cc1)CN(C)[C@@]21C(=O)Nc2ccccc21 | 77.7 | 69.3 | 65.2 | 66.8 | 82.7 | 118 |  |  |  |  |  |
| COc1ccc2c(c1)c(CC(=O)O)c(C)n2C(=O)c1ccc(Cl)cc1 [INDOMETHACIN] |  |  |  |  |  |  | 72.9 | 70.7 | 61.3 | 56.5 | 57 |
